Measurements taken from patent publication US7608289B2, “Food supplemented with a carnitine, suitable for stimulating the biosynthesis of polyunsaturated fatty acids from the saturated fatty acids contained in the food” (Sigma-Tau Industrie Farmaceutiche Riunite S.p.A., priority 1999, dated 2009).

Key:
[1] = Plasma lipid test: polyunsaturated to saturated fatty acid ratio in rabbits on milk diet plus carnitines; format: in vivo, New Zealand male rabbits; details: plasma lipids, carnitines given with milk diet, compared to controls
Source text: (§1) For these tests a batch of New Zealand male rabbits with a mean body weight of 3.7 kg was used, which, after a period of acclimatisation on a standard diet for eight days, were divided into different groups. One group received standard diet alone, while a second group received unskimmed milk mixed with pellets of the normal diet whose final composition was as follows: 4% fats, 24% proteins, 58% carbohydrates, 0.7% fibre, 10% water, 3% minerals and 1% vitamins. […]
(§2) After four weeks of treatment, blood samples were taken from the marginal vein of the ear and the plasma lipids obtained were subjected to measurement of the percentages of both saturated fatty acids and polyunsaturated fatty acids. The percentage amounts of unsaturated omega-3 fatty acids present in liver samples taken from the same animals were also measured. While total lipids were measured according to the method described by Schanfeld (Schanfeld G., J. Clin. Invest., 226:497, 1957) and Folch (Folch J., J. Biol. Chem., 226:497, 1957), the triglycerides and phospholipids were measured according to the method described by Terstra (Terstra A. H. M., Anal. Biochem., 11:149, 1981) and the n-3 and n-6 fatty acids according to the method described by Nestel (Nestel P. J., Ann. Rev. Nutr., 10:149, 1990) and Cevec (Cevec G., Biochemistry, 30:7:7186, 1991).

[2] = n-3 and n-6 fatty acids in hepatic phospholipids of rabbits on the diets; format: in vivo, New Zealand male rabbits; details: liver specimens, carnitines added to the milk diet
Source text: as §1, §2

CCC(=O)O[C@H](CC(=O)[O-])C[N+](C)(C)C [propionyl L-carnitine]
change of the ratio of polyunsaturated to saturated fatty acids (in words) [1]: particularly evident
increase in n-3 fatty acids / improvement of n-3 to n-6 ratio in liver (in words) [2]: most active compound

CC(=O)O[C@H](CC(=O)[O-])C[N+](C)(C)C [acetyl L-carnitine]
change of the ratio of polyunsaturated to saturated fatty acids (in words) [1]: particularly evident
